Laboratory results from patent US10426775B2, “Methods for treating Friedreich's ataxia with etravirine” (Fratagene Therapeutics srl, priority 2017, dated 2019).
Residues, ends and D or L forms follow the SMILES beside them. *: point of attachment. Cbz = O=C(OCc1ccccc1)*

Columns and labels:
frataxin-ProLabel fusion = test: frataxin-ProLabel cell-based reporter assay (β-galactosidase enzyme fragment complementation), library screening; parameters: species or system human; conditions: frataxin-ProLabel transfected cells treated with MG132
Method: The FDA-approved drug library (SELLECKCHEM SCREENING LIBRARIES®) that was used in the screening was composed of 853 drugs. The library was provided in a total of ten 96-well plate, with the drugs at a stock concentration of 10 mM in dimethyl sulfoxide (DMSO). To evaluate the effect of drugs on frataxin abundance, we generated a fusion construct between frataxin and ProLabel that was used as a reporter in a cell-based assay. The system is based on […] enzyme fragment complementation (Eglen, 2002). […] Indeed, treatment of frataxin-ProLabel transfected cells with MG132 promotes frataxin accumulation, which results in a 5-fold increase in the intensity of the luminescence signal. […]
For the screening, HEK-293 cells were transiently transfected with pCMV-fxn-ProLabel. […] After 24 hours, the complementary β-galactosidase subunit and the substrate were added and chemiluminescence emission was measured by luminometer reading. […] The chemiluminescent signal was monitored over a period of 210 minutes. […]
To analyse the FDA-approved drug screening results, an arbitrary threshold was established for each plate as the average of the luminescence measured in all the wells of the plate plus 2 standard deviations. Luminescence signal from each well was then normalized on threshold value. […]

[1] = tested on: newly synthesized frataxin mRNA; test: Nascent frataxin transcripts (EU metabolic labeling, Click-iT capture, real-time PCR) in HEK293-fxn; assay type: cell-based, human; conditions: 10 μM, 4 or 8 hours
Description: We then investigated whether the observed increase in frataxin protein levels is due to an upregulation of the frataxin mRNA, either promoted by an increase in the […] rate of frataxin mRNA or by its stabilization. To understand whether etravirine promotes de novo synthesis of frataxin mRNA, we metabolically labeled nascent transcripts through the incorporation of 5-ethynyl uridine (EU). Through a click chemistry-based reaction, biotin was then conjugated to EU-labelled transcripts, thus allowing selective isolation and analysis of newly synthesized mRNA. We therefore quantitatively analyzed the relative amount of newly synthesized frataxin mRNA in etravirine-treated HEK293-fxn cells, compared to untreated control cells. […] We then analyzed the effect of etravirine on the decay of frataxin transcript observed upon treatment with actinomycin. HEK293-fxn cells were treated with actinomycin for 4, 8 or 12 hours in the presence or absence of etravirine and frataxin mRNA was quantitated by RT-PCR.
HEK 293-fxn stably expressing frataxin (A), HEK 293 (B), or FRDA lymphoblast cell line GM16203 (C) were treated with 10 μM etravirine for the indicated time points. Protein extracts were resolved on SDS-PAGE and analyzed by western blot with anti-frataxin antibody and anti-tubulin as a loading control. Etr: etravirine; tub: tubulin; fxn pre: frataxin precursor. […]

Row | Structure (SMILES) | increase in the intensity of the luminescence signal (frataxin-ProLabel fusion) [fold] | relative amount of newly synthesized frataxin mRNA vs untreated control cells [1]
1 | CC(C)C[C@@H](C=O)NC(=O)[C@H](CC(C)C)NC(=O)[C@H](CC(C)C)NC(=O)OCc1ccccc1 [MG132] (Cbz-Leu-Leu-Leu-aldehyde) | 5 | –
2 | O=C(CCCCCCC(=O)Nc1ccccc1)NO [Vorinostat] | – | significantly upregulates
